Experimental data: paper PMC8581430, “Peptide ligands targeting FGF receptors promote recovery from dorsal root crush injury via AKT/mTOR signaling” (Theranostics, 2021)

System: primary DRG neurons
Assay: TUNEL assay of DRG neuron apoptosis induced by H2O2
Assay type: cell-based, Sprague-Dawley rat
Conditions: CH02 + inhibitor 24 h, then H2O2 12 h, n = 5
Method: Figure 3 Effect of the CH02 peptide on axon growth and neuron survival. (A) Representative images of the CH02 peptide effect on axon growth in adult primary DRG neurons. DRG neurons were obtained from adult Sprague-Dawley rats. After 12-h of culture, neurons were stimulated with CH02 or bFGF for 48 h. Axonal outgrowth was assessed by immunocytochemistry using an antibody against β-tubulin, an axonal marker. Images were acquired from random neurons by fluorescence microscopy. Scale bars = 50 μm. (B) Quantification of the longest axon length of each neuron randomly selected in three independent experiments from (A), using Image-Pro Plus 6.0 software (n = 48 for each condition; *p < 0.05, ****p < 0.0001 by one-way ANOVA with Dunnett's test; ns, not significant; mean ± SD). […] The axon is shown in fluorescence (β3-tubulin) images. […] (D) Quantification of axon growth of DRG explants from (C) using the Neurite-J software (n=4 for each condition; *control vs. CH02; #control vs. bFGF; *p < 0.05, **p < 0.01, ***p < 0.001, #p < 0.05, ##p < 0.01 by two-way ANOVA with Dunnett's test; ns, not significant; mean ± SEM). […] LDH released from damaged cell membranes was detected by an LDH assay kit. The results are expressed as the mean ± SEM (**p < 0.01 by one-way ANOVA with Dunnett's test; ns, not significant, compared with the control group). […] Apoptotic neurons were detected by a TUNEL apoptosis assay kit. […]

N#CC(=C(/N)Sc1ccccc1N)/C(C#N)=C(/N)Sc1ccccc1N [U0126]
effect of inhibitor on protective effect of CH02 against H2O2-induced apoptosis: significantly reduced the protective effect of CH02 on neurons from apoptosis induced by H2O2
